From patent publication US10407409B2, “6-(5-hydroxy-1H-pyrazol-1-yl)nicotinamide inhibitors of PHD” (Takeda Pharmaceutical Company Limited, priority 2013, dated 2019)

What was measured:
[1] = target: PHD2 enzyme (residues 181-417) (Homo sapiens (Human), UniProt Q9GZT9); experiment: Inhibition of PHD enzyme (LC/MS peptide hydroxylation assay); assay type: biochemical; conditions: PHD2 (residues 181-417) 5 nM, 60 min pre-incubation; -log(IC50), IC50 molar
Outline: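 PHD2 (5 nM final) preincubated with inhibitor 60 min at RT in 50 mM HEPES, 50 mM KCl, 0.5 mM TCEP, 2 uM FeCl2, 0.1 mg/ml BSA, pH 7.3. Reaction started with biotin-peptide (1 uM), 2-oxoglutarate (2 uM), ascorbate (1 mM), quenched at 60 min; hydroxylated product by LC/MS, reported as pIC50.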

[2] = tested on: HIF1a protein in H9c2 rat cardiomyocytes; experiment: Cell-based HIF-alpha stabilization assay (inhibition of PHD in cells); conditions: 24 hrs compound incubation, HIF1a protein by ELISA; for EC50: Rattus norvegicus, H9c2, 24 h, read-out: Inhibition of PHD in cells (pEC50) (converted)
Outline: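 Rat H9c2 cardiomyocytes, cultured 24 h, were treated 24 h with an 11-point serial dilution of compound. HIF1a in whole-cell lysates was quantified by ELISA as % of the maximal desferrioxamine response. EC50 came from curve fitting; EC50pos is the concentration reaching 50% of the desferrioxamine maximum.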

PHD2 enzyme (residues 181-417), sequence (Q9GZT9 181-417): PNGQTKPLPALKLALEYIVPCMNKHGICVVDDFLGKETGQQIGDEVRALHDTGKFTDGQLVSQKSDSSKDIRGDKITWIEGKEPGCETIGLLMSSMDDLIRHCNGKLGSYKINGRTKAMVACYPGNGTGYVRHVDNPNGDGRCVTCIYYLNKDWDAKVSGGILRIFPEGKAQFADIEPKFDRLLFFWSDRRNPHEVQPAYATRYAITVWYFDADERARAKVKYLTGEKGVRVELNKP

Row | SMILES | PHD Inhibition (pIC50) [1] | EC50 [2] | Inhibition of PHD in cells (pEC50) [2]
1 | N#Cc1ccc(-c2cnn(-c3ccc(C(=O)NCCCc4nccs4)cn3)c2O)cc1 [Example 116, 6-(4-(4-cyanophenyl)-5-hydroxy-1H-pyrazol-1-yl)-N-(3-(thiazol-2-yl)propyl)nicotinamide] | 7.42 | 741 nM | –
2 | N#Cc1ccc(-c2cnn(-c3ccc(C(=O)NCCCn4cccn4)cn3)c2O)cc1 [Example 117, N-(3-(1H-pyrazol-1-yl)propyl)-6-(4-(4-cyanophenyl)-5-hydroxy-1H-pyrazol-1-yl)nicotinamide] | 7.44 | 646 nM | –
3 | N#Cc1ccc(-c2cnn(-c3ccc(C(=O)NCCCOCC4CC4)cn3)c2O)cc1 [Example 118, 6-(4-(4-cyanophenyl)-5-hydroxy-1H-pyrazol-1-yl)-N-(3-(cyclopropylmethoxy)propyl)nicotinamide] | 7.36 | 316 nM | –
4 | CO[C@H]1CC[C@@H](NC(=O)c2ccc(-n3ncc(-c4ccc(C#N)cc4C)c3O)nc2)CC1 [Example 119, 6-(4-(4-cyano-2-methylphenyl)-5-hydroxy-1H-pyrazol-1-yl)-N-((1 s,4s)-4-methoxycyclohexyl)nicotinamide] | 7.11 | 126 nM | –
5 | Cc1cc(C#N)ccc1-c1cnn(-c2ccc(C(=O)N[C@H]3CCOC3)cn2)c1O [Example 120, (S)-6-(4-(4-cyano-2-methylphenyl)-5-hydroxy-1H-pyrazol-1-yl)-N-(tetrahydrofuran-3-yl)nicotinamide] | 7.2 | 102 nM | –
6 | COCCCNC(=O)c1ccc(-n2ncc(-c3ccc(C#N)cc3C)c2O)nc1 [Example 121, 6-(4-(4-cyano-2-methylphenyl)-5-hydroxy-1H-pyrazol-1-yl)-N-(3-methoxypropyl)nicotinamide] | 7.17 | 191 nM | –
7 | CC[C@H](C)NC(=O)c1ccc(-n2ncc(-c3ccc(C#N)cc3C)c2O)nc1 [Example 122, (S)—N-(sec-butyl)-6-(4-(4-cyano-2-methylphenyl)-5-hydroxy-1H-pyrazol-1-yl)nicotinamide] | 7.06 | 95.5 nM | –
8 | N#Cc1ccc(-c2cnn(-c3ccc(C(=O)N4CCOCC4)cn3)c2O)cc1 [Example 123, 4-(5-hydroxy-1-(5-(morpholine-4-carbonyl)pyridin-2-yl)-1H-pyrazol-4-yl)benzonitrile] | 7.16 | 4790 nM | –
9 | Cc1cc(C#N)ccc1-c1cnn(-c2ccc(C(=O)NCCCO)cn2)c1O [Example 125, 6-(4-(4-cyano-2-methylphenyl)-5-hydroxy-1H-pyrazol-1-yl)-N-(3-hydroxypropyl)nicotinamide] | 7.19 | 372 nM | –
10 | CCOCCNC(=O)c1ccc(-n2ncc(-c3ccc(C#N)cc3C)c2O)nc1 [Example 126, 6-(4-(4-cyano-2-methylphenyl)-5-hydroxy-1H-pyrazol-1-yl)-N-(2-ethoxyethyl)nicotinamide] | 7.24 | 380 nM | –
11 | Cc1cc(C#N)ccc1-c1cnn(-c2ccc(C(=O)NC3CC3)cn2)c1O [Example 127, 6-(4-(4-cyano-2-methylphenyl)-5-hydroxy-1H-pyrazol-1-yl)-N-cyclopropylnicotinamide] | 7.18 | 93.3 nM | –
12 | Cc1cc(C#N)ccc1-c1cnn(-c2ccc(C(=O)NC(C)C)cn2)c1O [Example 128, 6-(4-(4-cyano-2-methylphenyl)-5-hydroxy-1H-pyrazol-1-yl)-N-isopropylnicotinamide] | 7.04 | 145 nM | –
13 | COCC1(NC(=O)c2ccc(-n3ncc(-c4ccc(C#N)cc4C)c3O)nc2)CCCC1 [Example 129, 6-(4-(4-cyano-2-methylphenyl)-5-hydroxy-1H-pyrazol-1-yl)-N-(1-(methoxymethyl)cyclopentyl)nicotinamide] | 7.14 | 186 nM | –
14 | Cc1cc(C#N)ccc1-c1cnn(-c2ccc(C(=O)NCCCCO)cn2)c1O [Example 130, 6-(4-(4-cyano-2-methylphenyl)-5-hydroxy-1H-pyrazol-1-yl)-N-(4-hydroxybutyl)nicotinamide] | 7.27 | 417 nM | –
15 | Cc1cc(C#N)ccc1-c1cnn(-c2ccc(C(=O)N[C@H]3CC[C@@H](O)CC3)cn2)c1O [Example 131, 6-(4-(4-cyano-2-methylphenyl)-5-hydroxy-1H-pyrazol-1-yl)-N-((1 s,4s)-4-hydroxycyclohexyl)nicotinamide] | 7.21 | 257 nM | –
16 | Cc1cc(C#N)ccc1-c1cnn(-c2ccc(C(=O)N[C@H]3CC[C@H](O)CC3)cn2)c1O [Example 132, 6-(4-(4-cyano-2-methylphenyl)-5-hydroxy-1H-pyrazol-1-yl)-N-((1r,4r)-4-hydroxycyclohexyl)nicotinamide] | 7.26 | – | 6.59

Row | SMILES | PHD Inhibition (pIC50) [1] | EC50 [2] | Inhibition of PHD in cells (pEC50) [2]
17 | Cc1cc(C#N)ccc1-c1cnn(-c2ccc(C(=O)NCC3CCCO3)cn2)c1O (centres unmarked) [Example 133, 6-(4-(4-cyano-2-methylphenyl)-5-hydroxy-1H-pyrazol-1-yl)-N-((tetrahydrofuran-2-yl)methyl)nicotinamide] | 7.17 | 195 nM | –
18 | Cc1cc(C#N)ccc1-c1cnn(-c2ccc(C(=O)NC3CCC3)cn2)c1O [Example 134, 6-(4-(4-cyano-2-methylphenyl)-5-hydroxy-1H-pyrazol-1-yl)-N-cyclobutylnicotinamide] | 7.21 | 339 nM | –
19 | COCC1(CNC(=O)c2ccc(-n3ncc(-c4ccc(C#N)cc4C)c3O)nc2)CC1 [Example 135, 6-(4-(4-cyano-2-methylphenyl)-5-hydroxy-1H-pyrazol-1-yl)-N-((1-(methoxymethyl)cyclopropyl)methyl)nicotinamide] | 7.15 | 148 nM | –
20 | COCC(C)NC(=O)c1ccc(-n2ncc(-c3ccc(C#N)cc3C)c2O)nc1 (centres unmarked) [Example 136, 6-(4-(4-cyano-2-methylphenyl)-5-hydroxy-1H-pyrazol-1-yl)-N-(1-methoxypropan-2-yl)nicotinamide] | 7.13 | 112 nM | –
21 | Cc1cc(C#N)ccc1-c1cnn(-c2ccc(C(=O)N[C@@H]3CCOC3)cn2)c1O [Example 137, (R)-6-(4-(4-cyano-2-methylphenyl)-5-hydroxy-1H-pyrazol-1-yl)-N-(tetrahydrofuran-3-yl)nicotinamide] | 7.21 | 245 nM | –
22 | Cc1cc(C#N)ccc1-c1cnn(-c2ccc(C(=O)N[C@H](C)C3CC3)cn2)c1O [Example 138A, (R)-6-(4-(4-cyano-2-methylphenyl)-5-hydroxy-1H-pyrazol-1-yl)-N-(1-cyclopropylethyl)nicotinamide] | 6.95 | 302 nM | –
23 | Cc1cc(C#N)ccc1-c1cnn(-c2ccc(C(=O)N[C@H]3CC[C@H](O)CC3)cn2)c1O [Example 139, 6-(4-(4-cyano-2-methylphenyl)-5-hydroxy-1H-pyrazol-1-yl)-N-((1r,4r)-4-hydroxycyclohexyl)nicotinamide] | 7.36 | – | 7.09
24 | Cc1cc(C#N)ccc1-c1cnn(-c2ccc(C(=O)NC3CCN(C4CC4)CC3)cn2)c1O [Example 140, 6-(4-(4-cyano-2-methylphenyl)-5-hydroxy-1H-pyrazol-1-yl)-N-(1-cyclopropylpiperidin-4-yl)nicotinamide] | 8.1 | 120 nM | –
25 | Cc1cc(C#N)ccc1-c1cnn(-c2ccc(C(=O)NCCCn3cccn3)cn2)c1O [Example 141] | 8.3 | 407 nM | –
26 | Cc1cc(C#N)ccc1-c1cnn(-c2ccc(C(=O)NCC3CCCCO3)cn2)c1O (centres unmarked) [Example 142, 6-(4-(4-cyano-2-methylphenyl)-5-hydroxy-1H-pyrazol-1-yl)-N-((tetrahydro-2H-pyran-2-yl)methyl)nicotinamide] | 8.3 | 85.1 nM | –
27 | COCC1(CNC(=O)c2ccc(-n3ncc(-c4ccc(C#N)cc4C)c3O)nc2)CCCC1 [Example 143, 6-(4-(4-cyano-2-methylphenyl)-5-hydroxy-1H-pyrazol-1-yl)-N-((1-(methoxymethyl)cyclopentyl)methyl)nicotinamide] | 7.9 | 891 nM | –
28 | C[C@H]1CC[C@H](NC(=O)c2ccc(-n3ncc(-c4ccc(C#N)cc4)c3O)nc2)CC1 [Example 144, 6-(4-(4-cyanophenyl)-5-hydroxy-1H-pyrazol-1-yl)-N-((1r,4r)-4-methylcyclohexyl)nicotinamide] | 8.1 | 1700 nM | –
29 | COC(C)CCNC(=O)c1ccc(-n2ncc(-c3ccc(C#N)cc3)c2O)nc1 (centres unmarked) [Example 145, 6-(4-(4-cyanophenyl)-5-hydroxy-1H-pyrazol-1-yl)-N-(3-methoxybutyl)nicotinamide] | 8.3 | 501 nM | –
30 | COCC(C)CNC(=O)c1ccc(-n2ncc(-c3ccc(C#N)cc3)c2O)nc1 (centres unmarked) [Example 146, 6-(4-(4-cyanophenyl)-5-hydroxy-1H-pyrazol-1-yl)-N-(3-methoxy-2-methylpropyl)nicotinamide] | 8.3 | 692 nM | –
31 | COCC1(CNC(=O)c2ccc(-n3ncc(-c4ccc(C#N)cc4)c3O)nc2)CCCC1 [Example 147, 6-(4-(4-cyanophenyl)-5-hydroxy-1H-pyrazol-1-yl)-N-((1-(methoxymethyl)cyclopentyl)methyl)nicotinamide] | 7.9 | 3240 nM | –
